Organism: Rattus norvegicus
Test: Open TG-GATES - Regimen: Daily Repeat
Assay type: toxicity, organism-based, Sprague-Dawley
Design: regimen Daily Repeat, gender Male, age 6 weeks
Settings: in vivo, po, 100 mg/kg, route gavage, dose level Low; for APTT / Bas / Eos / Fbg / Hb / Ht / Lym / MCH / MCHC / MCV / Mono / Neu / PT / Plat / RBC / Ret / WBC: tissue Blood; for KIDNEY_L / KIDNEY_R / KIDNEY_TOTAL: tissue Kidney; for LIVER: tissue Liver; for A/G / ALP / ALT / AST / BUN / CRE / Ca / Cl / DBIL / GLC / IP / LDH / Na / PL / RALB / TBIL / TC / TG / TP / gamma-GTP: tissue Plasma

NC(N)=Nc1nc(CSCCC(N)=NS(N)(=O)=O)cs1 [FAMOTIDINE]
TERMINAL_BW (72 h, time 3 day): 224.5 g | APTT (72 h, time 3 day): 19.8 s | Bas (72 h, time 3 day): 0% | Eos (72 h, time 3 day): 1% | Fbg (72 h, time 3 day): 225.2 mg/dL | Hb (72 h, time 3 day): 13.3 g/dL | Ht (72 h, time 3 day): 37.3% | Lym (72 h, time 3 day): 78.4% | MCH (72 h, time 3 day): 22.1 pg | MCHC (72 h, time 3 day): 35.6% | MCV (72 h, time 3 day): 62.1 fL | Mono (72 h, time 3 day): 2.6% | Neu (72 h, time 3 day): 15.6% | PT (72 h, time 3 day): 12 s | Plat (72 h, time 3 day): 124.1 x10_4/uL | RBC (72 h, time 3 day): 600.6 x10_4/ul | Ret (72 h, time 3 day): 5.7% | WBC (72 h, time 3 day): 87.5 x10_2/uL | KIDNEY_L (72 h, time 3 day): 1 g | KIDNEY_R (72 h, time 3 day): 1 g | KIDNEY_TOTAL (72 h, time 3 day): 2 g | LIVER (72 h, time 3 day): 10.2 g | A/G (72 h, time 3 day): 1.6 | ALP (72 h, time 3 day): 1126.4 IU/L | ALT (72 h, time 3 day): 30.2 IU/L | AST (72 h, time 3 day): 63.6 IU/L | BUN (72 h, time 3 day): 16.6 mg/dL | CRE (72 h, time 3 day): 0.4 mg/dL | Ca (72 h, time 3 day): 10.7 mg/dL | Cl (72 h, time 3 day): 102.8 meq/L | DBIL (72 h, time 3 day): 0.086 mg/dL | GLC (72 h, time 3 day): 190.4 mg/dL | IP (72 h, time 3 day): 7.2 mg/dL | LDH (72 h, time 3 day): 190.6 IU/L | Na (72 h, time 3 day): 139 meq/L | PL (72 h, time 3 day): 136.8 mg/dL | RALB (72 h, time 3 day): 3.3 g/dL | TBIL (72 h, time 3 day): 0.1 mg/dL | TC (72 h, time 3 day): 73.8 mg/dL | TG (72 h, time 3 day): 63.2 mg/dL | TP (72 h, time 3 day): 5.5 g/dL | gamma-GTP (72 h, time 3 day): 1.2 IU/L | TERMINAL_BW ([…], time 7 day): 259.3 g | TERMINAL_BW ([…], time 14 day): 310.4 g | TERMINAL_BW ([…], time 28 day): 389.2 g | APTT ([…], time 7 day): 20.9 s | Bas ([…], time 7 day): 0% | Eos ([…], time 7 day): 1% | Fbg ([…], time 7 day): 217.6 mg/dL | Hb ([…], time 7 day): 13.5 g/dL | Ht ([…], time 7 day): 37.6% | Lym ([…], time 7 day): 78.6% | MCH ([…], time 7 day): 22 pg | MCHC ([…], time 7 day): 35.9% | MCV ([…], time 7 day): 61.5 fL | Mono ([…], time 7 day): 2.8% | Neu ([…], time 7 day): 16.4% | PT ([…], time 7 day): 12.1 s | Plat ([…], time 7 day): 116.2 x10_4/uL | RBC ([…], time 7 day): 612 x10_4/ul | Ret ([…], time 7 day): 5.2% | WBC ([…], time 7 day): 95.1 x10_2/uL | APTT ([…], time 14 day): 22.2 s | Bas ([…], time 14 day): 0% | Eos ([…], time 14 day): 0.6% | Fbg ([…], time 14 day): 217.4 mg/dL | Hb ([…], time 14 day): 14.4 g/dL | Ht ([…], time 14 day): 41.5% | Lym ([…], time 14 day): 77.4% | MCH ([…], time 14 day): 20.9 pg | MCHC ([…], time 14 day): 34.8% | MCV ([…], time 14 day): 60 fL | Mono ([…], time 14 day): 2.4% | Neu ([…], time 14 day): 17.8% | PT ([…], time 14 day): 12.6 s | Plat ([…], time 14 day): 111.6 x10_4/uL | RBC ([…], time 14 day): 691.8 x10_4/ul | Ret ([…], time 14 day): 4% | WBC ([…], time 14 day): 94.5 x10_2/uL | APTT ([…], time 28 day): 21.5 s | Bas ([…], time 28 day): 0% | Eos ([…], time 28 day): 1.6% | Fbg ([…], time 28 day): 219.4 mg/dL | Hb ([…], time 28 day): 15.5 g/dL | Ht ([…], time 28 day): 43.7% | Lym ([…], time 28 day): 81.2% | MCH ([…], time 28 day): 19.4 pg | MCHC ([…], time 28 day): 35.5% | MCV ([…], time 28 day): 54.9 fL | Mono ([…], time 28 day): 1.6% | Neu ([…], time 28 day): 14.2% | PT ([…], time 28 day): 12.8 s | Plat ([…], time 28 day): 96.6 x10_4/uL | RBC ([…], time 28 day): 796 x10_4/ul | Ret ([…], time 28 day): 2.2% | WBC ([…], time 28 day): 90.2 x10_2/uL | KIDNEY_L ([…], time 7 day): 1.1 g | KIDNEY_R ([…], time 7 day): 1.1 g | KIDNEY_TOTAL ([…], time 7 day): 2.2 g | KIDNEY_L ([…], time 14 day): 1.2 g | KIDNEY_R ([…], time 14 day): 1.2 g | KIDNEY_TOTAL ([…], time 14 day): 2.5 g | KIDNEY_L ([…], time 28 day): 1.3 g | KIDNEY_R ([…], time 28 day): 1.4 g | KIDNEY_TOTAL ([…], time 28 day): 2.7 g | LIVER ([…], time 7 day): 12.4 g | LIVER ([…], time 14 day): 13.4 g | LIVER ([…], time 28 day): 15.7 g | A/G ([…], time 7 day): 1.5 | ALP ([…], time 7 day): 940.8 IU/L | ALT ([…], time 7 day): 30.4 IU/L | AST ([…], time 7 day): 67 IU/L | BUN ([…], time 7 day): 16.4 mg/dL | CRE ([…], time 7 day): 0.4 mg/dL | Ca ([…], time 7 day): 10.7 mg/dL | Cl ([…], time 7 day): 103 meq/L | DBIL ([…], time 7 day): 0.098 mg/dL | GLC ([…], time 7 day): 182.8 mg/dL | IP ([…], time 7 day): 7 mg/dL | LDH ([…], time 7 day): 205.2 IU/L | Na ([…], time 7 day): 140.8 meq/L | PL ([…], time 7 day): 151 mg/dL | RALB ([…], time 7 day): 3.4 g/dL | TBIL ([…], time 7 day): 0.2 mg/dL | TC ([…], time 7 day): 78.6 mg/dL | TG ([…], time 7 day): 98.2 mg/dL | TP ([…], time 7 day): 5.6 g/dL | gamma-GTP ([…], time 7 day): 1.2 IU/L | A/G ([…], time 14 day): 1.5 | ALP ([…], time 14 day): 918.4 IU/L | ALT ([…], time 14 day): 38 IU/L | AST ([…], time 14 day): 64.4 IU/L | BUN ([…], time 14 day): 15.2 mg/dL | CRE ([…], time 14 day): 0.5 mg/dL | Ca ([…], time 14 day): 10.5 mg/dL | Cl ([…], time 14 day): 104 meq/L | DBIL ([…], time 14 day): 0.096 mg/dL | GLC ([…], time 14 day): 196.2 mg/dL | IP ([…], time 14 day): 7 mg/dL | LDH ([…], time 14 day): 181 IU/L | Na ([…], time 14 day): 140.6 meq/L | PL ([…], time 14 day): 141.2 mg/dL | RALB ([…], time 14 day): 3.3 g/dL | TBIL ([…], time 14 day): 0.2 mg/dL | TC ([…], time 14 day): 67 mg/dL | TG ([…], time 14 day): 111.4 mg/dL | TP ([…], time 14 day): 5.6 g/dL | gamma-GTP ([…], time 14 day): 1.6 IU/L | A/G ([…], time 28 day): 1.3 | ALP ([…], time 28 day): 577.4 IU/L | ALT ([…], time 28 day): 31.8 IU/L | AST ([…], time 28 day): 59.6 IU/L | BUN ([…], time 28 day): 15.8 mg/dL | CRE ([…], time 28 day): 0.6 mg/dL | Ca ([…], time 28 day): 9.9 mg/dL | Cl ([…], time 28 day): 103.4 meq/L | DBIL ([…], time 28 day): 0.074 mg/dL | GLC ([…], time 28 day): 241.8 mg/dL | IP ([…], time 28 day): 7.1 mg/dL | LDH ([…], time 28 day): 132.8 IU/L | Na ([…], time 28 day): 140.8 meq/L | PL ([…], time 28 day): 121.2 mg/dL | RALB ([…], time 28 day): 3.3 g/dL | TBIL ([…], time 28 day): 0.1 mg/dL | TC ([…], time 28 day): 57.8 mg/dL | TG ([…], time 28 day): 91 mg/dL | TP ([…], time 28 day): 5.9 g/dL | gamma-GTP ([…], time 28 day): 1.2 IU/L

Reference: ChEMBL document CHEMBL3885861, “Open TG-GATES”
